Assay results reported in patent US5332734A, “Oxazinone derivative” (Japan Tobacco, Incorporated, priority 1991, dated 1994).

What was measured:
Assay type in all cases: biochemical
[1] = molecular target: T1, bovine pancreatic α-chymotrypsin (CYT) (Bos taurus, UniProt P00766); assay: CYT inhibitory activity; conditions: CYT 3.4 nM, substrate 0.273 mM, pH 8.0
T1 construct: purchased Sigma Inc; host or cells: bovine pancreas (by its name)
Description: (§1) Inhibotory activities of the oxadinone derivative of the present invention against human leukocyte elastase (HLE), human sputum elastase (HSE), human cathepsin G (HCG), bovine pancreatic α-chymotrypsin (CYT) and bovine pancreatic trypsin (TRY) were measured as follows:
(4) Measurement of CYT Inhibitory Activity
(§2) a) Enzyme Preparing Method Bought from Sigma Inc.
(§3) Employed was a measuring method similar to that described previously in conjunction with the measurement of the HLE inhibiting activity, except that used was a buffer solution of pH 8.0. The final concentrations of CYT and the synthetic substrate (Ac-Ala-Ala-Pro-Phe-pNA; FUNAKOSHI) in the solution of the enzyme reaction were 3.4 nM and 0.273 mM, respectively.

[2] = molecular target: T2, human sputum elastase (HSE) (Homo sapiens, UniProt P08246); assay: HSE inhibitory activity; conditions: HSE 10 nM, substrate 0.25 mM, pH 7.0
T2 construct: purchased Sigma Inc; host or cells: human sputum (by its name)
T2 sequence (P08246 30-247 limits assumed): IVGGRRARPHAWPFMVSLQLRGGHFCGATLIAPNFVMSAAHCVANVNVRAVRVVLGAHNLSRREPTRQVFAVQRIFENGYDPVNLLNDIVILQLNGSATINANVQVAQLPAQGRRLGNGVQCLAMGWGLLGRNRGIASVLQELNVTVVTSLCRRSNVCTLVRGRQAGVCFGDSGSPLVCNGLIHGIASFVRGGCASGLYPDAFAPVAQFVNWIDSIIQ
Description: as §1
(2) Measurement of HSE Inhibiting Activity
as §2
as §3, with “inhibitory” for “inhibiting”, “7.0.” for “8.0.”, “HSE” for “CYT”, “(MeOSuc-Ala-Ala-Pro-Phe-pNA;” for “(Ac-Ala-Ala-Pro-Phe-pNA;”, “10” for “3.4”, “0.25” for “0.273”

[3] = molecular target: T3, human leukocyte elastase (HLE) (Homo sapiens, UniProt P08246); assay: HLE inhibitory activity; conditions: HLE 5.63 nM, substrate 0.2625 mM, pH 8.6, 37° C.
T3 construct: applying a density gradient centrifugal operation so as to obtain neutrophils; from tissue; host or cells: neutrophils from human venous blood
T3 sequence (P08246 30-267): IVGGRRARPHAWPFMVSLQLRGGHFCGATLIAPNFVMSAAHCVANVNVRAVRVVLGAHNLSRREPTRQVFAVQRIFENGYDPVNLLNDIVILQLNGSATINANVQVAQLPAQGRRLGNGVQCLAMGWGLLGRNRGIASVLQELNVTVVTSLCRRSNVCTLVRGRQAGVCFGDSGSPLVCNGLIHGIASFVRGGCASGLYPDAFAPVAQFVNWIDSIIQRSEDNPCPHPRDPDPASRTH
Description: as §1
(1) Measurement of HLE Inhibitory Activity
A buffy coat was obtained by subjecting human vein blood to centrifugal separation, followed by adding distilled water to the buffy coat thus obtained for performing a low tension treatment so as to collapse erythrocytes. A mixture consisting of 10 parts of a 33.4% Conrey 400 solution and 24 parts of 9% of Ficoll solution was added to the residual blood cell component, followed by applying a density gradient centrifugal operation so as to obtain neutrophils. The neutrophil fraction was washed three times with Hanks' buffer so as to recover cells, which were frozen at -80° C. for preservation until the cells were used. The cells preserved under a frozen state were thawed with warm water of 37° C. and suspended in the lysis buffer (0.1M Tris-HCl pH 7.5, 1M MgCl2, 0.1% Brij 35), the amount of the buffer being 9 times as much as that of the cells. Then, the suspended cells were collapsed with polotron while cooling the suspension with ice. Then, the suspension was subjected to a centrifugal separation at 100,000×g for one hour so as to remove the precipitate. Also, a buffer (5 mM Tris-HCl pH 7.5, 1M NaCl, 1.1% Brij 35) was added to the supernatant in an amount twice as much as the supernatant so as to prepare a crude solution of an enzyme extract. The crude solution of an enzyme extract was adsorbed on an aprotinin affinity column. Further, the active fraction eluted with a 50 ml glycine-HCl solution (pH 3.3, 1M NaCl, 0.1% Brij 35) was passed through a MONO S ion-exchange chromatography. The active fraction eluted with a 2M NaCl linear gradient was dialyzed and, then, subjected to a freeze-drying so as to prepare an enzyme sample.
A test compound to be detected was dissolved in DMSO (for fluorometry) so as to prepare solutions of various concentrations. Then, the solution of 0.2M Tris-HCl (pH 9.6) was added to each of the solutions in an amount twice as much as the solution so as to prepare a test solution. On the other hand, a synthetic substrate (MeOSuc-Ala-Pro-Val-pNA; FUNAKOSHI) was dissolved in DMSO, followed by adding 0.2M tris-HCl solution (pH 8.6) to the solution in an amount twice as much as the solution so as to prepare a substrate solution.
A microplate (NUNK) provided with 96 wells was used for the reaction. The reaction was repeatedly carried out 6 times for each concentration of the test compound. Each of 140 μl of the enzyme solution (0.2M Tris-HCl, pH 8.6), 30 μl of the test material solution and 30 μl of the substrate solution was pre-incubated for 10 minutes at 37° C. for each well of the microplate. After incubation of a mixture of the enzyme solution and the test material solution for 10 minutes, the substrate solution was added so as to carry out the enzyme reaction. For determining the substrate decomposition, the absorbance (405 run) of the released pNA was measured by a microplate reader (MTP-100; CORONA), and the substrate decomposition was calculated on the basis of the average value of the absorbances repeatedly measured 6 times. The inhibitory concentration of the test compound relative to the decomposition amount of the substrate in the case where the test compound was not added was obtained as IC50 value.

human cathepsin G (HCG) = molecular target: T4, human cathepsin G (HCG) (Homo sapiens, UniProt P08311); assay: HCG inhibitory activity; conditions: HCG 50 nM, substrate 0.5 mM, pH 7.5
T4 construct: purchased Cosmo Bio Inc
T4 sequence (P08311 21-255): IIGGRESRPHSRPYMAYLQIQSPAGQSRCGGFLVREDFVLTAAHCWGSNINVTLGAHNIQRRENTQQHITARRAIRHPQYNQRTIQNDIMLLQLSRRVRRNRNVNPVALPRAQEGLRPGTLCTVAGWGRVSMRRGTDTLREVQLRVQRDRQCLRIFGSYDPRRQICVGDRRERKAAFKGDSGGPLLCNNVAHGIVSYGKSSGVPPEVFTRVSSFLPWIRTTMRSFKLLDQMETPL
Description: as §1
(3) Measurement of HCG Inhibitory Activity
a) Enzyme Preparing Method Bought from Cosmo Bio Inc.
as §3, with “7.5.” for “8.0.”, “HCG” for “CYT”, “50” for “3.4”, “0.5” for “0.273”

Question: Which results are given for `Cc1cccc2nc([C@H](CC(C)C)NC(=O)OCC3c4ccccc4-c4ccccc43)oc(=O)c12` [Compound 2, 2-{1(S)-[(9-fluorenylmethoxycarbonyl)amino]-3-methylbutyl}-5-methyl-4H-3,1-benzoxazin-4-one]?
Answer: IC50 [1]: 4460 nM; IC50 [2]: 300 nM; IC50 [3]: 730 nM; IC50 (human cathepsin G (HCG)): > 5340 nM

Question: Which results are given for `Cc1cccc2nc([C@@H](NC(=O)OCC3c4ccccc4-c4ccccc43)C(C)C)oc(=O)c12` [Compound 1, 2-{1(S)-[(9-fluorenylmethoxycarbonyl)amino]-2-methylpropyl}-5-methyl-4H-3,1-benzoxazin-4-one]?
Answer: IC50 [1]: 4750 nM; IC50 [2]: 310 nM; IC50 [3]: 240 nM; IC50 (human cathepsin G (HCG)): > 5500 nM
